Assay results from patent US20260167715A1, “PD-1+CD38HICD8+ KILLER T CELLS AND USES THEREOF” (GEORGETOWN UNIVERSITY, priority 2022, published 2026).
Residues, ends and D or L forms follow the SMILES beside them. *: point of attachment. Cbz = O=C(OCc1ccccc1)*; CH2Cl = ClC*

What was measured:
T^frat cells [1] = experiment: Degranulation (CD107a) in T^frat cells cultured with rCD31 with or without PI3K or ERK1/2 inhibitors; assay type: cell-based, mouse; conditions: rCD31 with inhibitor (100 nM), 24 h
T^frat cells [2] = experiment: Gzm B levels in T^frat cells after NAD repletion or SIRT1 activator; assay type: cell-based, mouse; conditions: NAD (1 mM) or SIRT1 activator (1 or 2 μM), 24 h
Experimental: (§1) PD1^+CD38^hi and Teff CD8 T cells were generated by our previously reported method^2. In brief, MACS purified (>90%) OT1-CD8 (CD45.1) T cells from mouse spleen were activated either with low-affinity OVA-V peptide or with high-affinity OVA peptide ([…]) in T cell medium supplemented with 30 international units (IU) of IL-2 for 48 hours followed by FACS purification of PD1^+CD38^hi and PD1^+CD38^lo T cells respectively. Various cell surface and intracellular markers as well as level of pro- and anti-inflammatory cytokines, and cytolytic molecules were analyzed by flow cytometry as explained in the next section. In some experiments, CD38 was KD using siRNA for 24 h prior to various marker analysis. Furthermore, in a few experiments, either NAD (1 mM) or SIRT1 activator (1 or 2 μM) were added to the Tfrat cells for 24 h and levels of Gzm B were measured in these cells and in Teff cells by flow cytometry. To determine the role of CD38:CD31 interaction and signaling in Gzm B degranulation, Tfrat cells were cultured with rCD31 (1 or 5 μg) with or without PI3K or ERK1/2 inhibitors (100 nM). After 24 h, degranulation of Gzm B in T^frat cells was measured by CD1071 staining and levels of various signaling molecules by flow cytometry.

[3] = tested on: target pMel-1 CD8 T cells; experiment: Co-culture (in vitro cell killing) of PD1+CD38hi or Teff CD8 T cells with target pMel-1 CD8 T cells; annexin V, caspase3/7, live/dead staining; assay type: cell-based; conditions: co-incubation of T^frat and target cells with blocking antibody or inhibitor
Text: For the flow cytometry analysis of lymphocytes of mouse and human origin, 1-2×10^6 cells per sample were stained with the LIVE/DEAD fixable near-IR dead cell stain kit (Invitrogen; catalog no. L10119) followed by fixation and permeabilization. All surface and intracellular markers were stained at the same time in fix and per buffer as per manufacturer's recommendations. For IFN-7 and Gzm B staining, the BD Biosciences Cytofix/Cytoperm (catalog no. 51-2090KZ) and BD Biosciences Perm/Wash (catalog no. 51-2091KZ) buffer sets were used according to the manufacturer's instructions. In a few experiments, variously treated cells were processed for annexin V staining to check the extent of apoptosis. For this, collected cells were stained for annexin V in annexin binding buffer (ABB) (BD Biosciences) for 30 minutes at 4° C. […]
PD1^+CD38^hi and Teff CD8 T cells were co-cultured overnight with FACS-sorted Thy1.1 target pMel-1 CD8^+ T cells (killer to target cell ratio 1:1) that were activated with gp100 peptide (1 μM per 10^6 cells per mL). […] In addition to the annexin V staining, Gzm B levels in the pMel-1 target CD8 or CD4 T cells and […] levels in the Tfrat cells after their co-culture in the presence or absence of anti-CD38/CD31 were measured by flow cytometry. […] Viability of target cells was assessed by FACS analysis using fixable Live/Dead stain.

[4] = tested on: Zap70, PI3K, RAC, and ERK in T^frat cells; experiment: Signaling molecules in T^frat cells incubated with rCD31 (Western blotting); assay type: cell-based, mouse; conditions: incubation with rCD31 (1 or 5 μg)
Experimental: as §1, with “After 24 h, degranulation of Gzm B in T^frat cells was measured by CD1071 staining and levels of various signaling molecules by flow cytometry.” left out

In the case of `O=C(Nc1ccc2[nH]nc(-c3ccncc3)c2c1)[C@@H]1CCN(CC(=O)N2CCN(c3ccc(-c4ncccn4)cc3)CC2)C1` [ERK inhibitor, SCH772984], the “degranulation of Gzm B resulting from CD38:CD31 engagement, measured by CD107a level” value (T^frat cells [1]) is reported as “inhibited”.

For `NC(=O)c1ccc[n+]([C@@H]2O[C@H](COP(=O)([O-])OP(=O)(O)OC[C@H]3O[C@@H](n4cnc5c(N)ncnc54)[C@H](O)[C@@H]3O)[C@@H](O)[C@H]2O)c1` [NAD], the “expression of Gzm B in T^frat” value (T^frat cells [2]) was “decrease in the expression of Gzm B”.

`Cl.O=C(Nc1ccccc1-c1cn2c(CN3CCNCC3)csc2n1)c1cnc2ccccc2n1` [SRT1720 HCl] was tested, and the “expression of Gzm B in T^frat” value (T^frat cells [2]) was “decrease in the expression of Gzm B”.

For `C[C@H](NC(=O)OCc1ccccc1)C(=O)N[C@@H](C)C(=O)N[C@@H](CC(=O)O)C(=O)CCl` [Z-AAD-CMK] (Cbz-Ala-Ala-Asp-CH2Cl), the “T^frat-mediated apoptosis in target pMel-1 CD8 T cells in presence of the agent (annexin V)” value [3] was “fully abrogated”.

B1: rCD31: recombinant CD31 protein (3628-PC-050, R&D) (protein)
chain: EENSFTINSIHMESLPSWEVMNGQQLTLECLVDISTTSKSRSQHRVLFYKDDAMVYNVTSREHTESYVIPQARVFHSGKYKCTVMLNNKEKTTIEYEVKVHGVSKPKVTLDKKEVTEGGVVTVNCSLQEEKPPIFFKIEKLEVGTKFVKRRIDKTSNENFVLMEFPIEAQDHVLVFRCQAGILSGFKLQESEPIRSEYVTVQESFSTPKFEIKPPGMIIEGDQLHIRCIVQVTHLVQEFTEIIIQKDKAIVATSKQSSEAVYSVMAMVEYSGHYTCKVESNRISKASSIMVNITELFPKPKLEFSSSRLDQGELLDLSCSVSGTPVANFTIQKEETVLSQYQNFSKIAEESDSGEYSCTAGIGKVVKRSGLVPIQVCEMLSKPSIFHDAKSEIIKGHAIGISCQSENGTAPITYHLMKAKSDFQTLEVTSNDPATFTDKPTRDMEYQCRADNCHSHPAVFSEILRVRVIAPVDEVVISILSSNEVQSGSEMVLRCSVKEGTSPITFQFYKEKEDRPFHQAVVNDTQAFWHNKQASKKQEGQYYCTASNRASSMRTSPRSSTLAVRVFLAPWKK
For B1, the “expression of phosphorylated Zap70, PI3K, RAC, and ERK in T^frat cells” value [4] was “increase in the expression of phosphorylated Zap70, PI3K, RAC, and ERK”.
